# Test: T1/2 (phosphate buffer pH 7.0 @ 28 degree C)
# Format: ADME
row,SMILES,half-life [h]
1,CC(C)(C)C1=C(C(=O)[O-])N2C(=O)[C@H](CNC(=O)[C@H](N)c3ccccc3)[C@H]2O1.[Na+],2.2
2,CC(C)(C)C1=C(C(=O)[O-])N2C(=O)[C@H]([C@@H](O)CCc3ccc(O)cc3)[C@H]2O1.[Na+],21.2
3,CC(C)(C)C1=C(C(=O)[O-])N2C(=O)[C@H]([C@@H](O)c3ccccc3)[C@H]2O1.[Na+],8.9
4,CC(C)(C)C1=C(C(=O)[O-])N2C(=O)[C@H]([C@H](O)c3ccccc3)[C@H]2O1.[Na+],7
5,C[C@H](O)[C@H]1C(=O)N2C(C(=O)[O-])=C(C(C)(C)C)O[C@H]12.[Na+],7.1
6,C[C@@H](O)[C@H]1C(=O)N2C(C(=O)[O-])=C(C(C)(C)C)O[C@H]12.[Na+],8.1
7,COC(=O)[C@H](O)[C@H]1C(=O)N2C(C(=O)[O-])=C(C(C)(C)C)O[C@H]12.[Na+],6.7
8,C[C@@H](F)[C@H]1C(=O)N2C(C(=O)[O-])=C(C(C)(C)C)O[C@H]12.[Na+],3.5
9,CC(C)(C)C1=C(C(=O)[O-])N2C(=O)[C@H](CNS(=O)(=O)Cc3ccccc3)[C@H]2O1.[Na+],8.9
10,CC(C)(C)C1=C(C(=O)[O-])N2C(=O)[C@H]([C@H](O)c3ccccc3)[C@@H]2O1.[Na+],0.5
11,CC(C)(C)C1=C(C(=O)[O-])N2C(=O)[C@H](CNC(=O)Cc3ccccc3)[C@H]2O1.[Na+],5.5
12,CC(C)(C)C1=C(C(=O)[O-])N2C(=O)[C@H]([C@H](O)CCc3ccncc3)[C@@H]2O1.[Na+],7.1
13,CC(C)(C)C1=C(C(=O)[O-])N2C(=O)[C@H](CNC(=O)CNC(=O)Cc3ccccc3)[C@H]2O1.[Na+],6.6
14,CC(C)(C)C1=C(C(=O)[O-])N2C(=O)[C@H]([C@@H](O)CCc3ccccc3)[C@H]2O1.[Na+],39
15,CC(C)(C)C1=C(C(=O)[O-])N2C(=O)[C@H](CN)[C@H]2O1.[Na+],1.2
16,CC(C)(C)C1=C(C(=O)[O-])N2C(=O)[C@H]([C@@H](O)CCc3ccncc3)[C@H]2O1.[Na+],15.8
17,CC(C)(C)C1=C(C(=O)[O-])N2C(=O)[C@H]([C@@H](O)c3ccncc3)[C@H]2O1.[Na+],6
18,CC(C)(C)C1=C(C(=O)[O-])N2C(=O)[C@H](CNS(C)(=O)=O)[C@H]2O1.[Na+],2.2
19,CC(C)(C)OC(=O)[C@H](O)[C@H]1C(=O)N2C(C(=O)[O-])=C(C(C)(C)C)O[C@H]12.[Na+],10.7

row,SMILES,half-life [h]
1,CC(C)(C)C1=C(C(=O)[O-])N2C(=O)[C@H]([C@H](O)CCc3ccncc3)[C@H]2O1.[Na+],13.7
2,CC(C)(C)C1=C(C(=O)[O-])N2C(=O)[C@H](CO)[C@@H]2O1.[Na+],2.4
3,C[C@H](F)[C@H]1C(=O)N2C(C(=O)[O-])=C(C(C)(C)C)O[C@H]12.[Na+],7.2
4,Cn1cc([C@H](O)[C@H]2C(=O)N3C(C(=O)[O-])=C(C(C)(C)C)O[C@H]23)nn1.[Na+],7
5,CC(C)(C)C1=C(C(=O)[O-])N2C(=O)[C@H]([C@H](O)CCc3ccc(O)cc3)[C@H]2O1.[Na+],24.6
6,CC(C)(C)C1=C(C(=O)[O-])N2C(=O)[C@H](CNC(=O)COC(=O)Cc3ccccc3)[C@H]2O1.[Na+],9.3
7,CC(C)(C)C1=C(C(=O)[O-])N2C(=O)[C@H](CNC(=O)COc3ccccc3)[C@H]2O1.[Na+],5.7
8,CC(=O)NC[C@H]1C(=O)N2C(C(=O)[O-])=C(C(C)(C)C)O[C@H]12.[Na+],< 3
9,CC(C)(C)C1=C(C(=O)[O-])N2C(=O)[C@H]([C@@H](O)c3ccccc3)[C@@H]2O1.[Na+],2.2
10,COC(=O)[C@@H](O)[C@H]1C(=O)N2C(C(=O)[O-])=C(C(C)(C)C)O[C@H]12.[Na+],6.2
11,CC(C)(C)C1=C(C(=O)[O-])N2C(=O)[C@H](CO)[C@H]2O1.[Na+],5
12,CC(C)(C)C1=C(C(=O)[O-])N2C(=O)[C@H]([C@H](O)CCc3ccccc3)[C@H]2O1.[Na+],21
13,CC(C)(C)C1=C(C(=O)[O-])N2C(=O)[C@H]([C@@H](O)c3ccc(O)cc3)[C@H]2O1.[Na+],10.3
14,C[C@@H](O)[C@H]1C(=O)N2C(C(=O)[O-])=C(C(C)(C)C)O[C@@H]12.[Na+],6.4
15,Cn1cc([C@@H](O)[C@H]2C(=O)N3C(C(=O)[O-])=C(C(C)(C)C)O[C@H]23)nn1.[Na+],6.8
16,CC(C)(C)C1=C(C(=O)[O-])N2C(=O)[C@H]([C@H](O)c3ccncc3)[C@H]2O1.[Na+],6.4
17,CC(C)(C)C1=C(C(=O)[O-])N2C(=O)[C@H]([C@@H](O)CCc3ccc(O)cc3)[C@@H]2O1.[Na+],11.8
18,CC(C)(C)C1=C(C(=O)[O-])N2C(=O)[C@H](CNC(=O)CCNC(=O)Cc3ccccc3)[C@H]2O1.[Na+],5.5
19,O=C([O-])[C@H]1/C(=C/CO)O[C@@H]2CC(=O)N21.[K+] [CLAVULANATE POTASSIUM],60
